Values quoted from earlier work as cited in article PMC7465340, “Preparation and Evaluation of Eudragit L100-PEG Proliponiosomes for Enhanced Oral Delivery of Celecoxib” (Pharmaceutics, 2020).
Values after ≈ are worked out from the molar mass of the structure shown. Where two headings read alike, the source gives them in different places.

solubility in aqueous media (pH 1.2): 1.4 µg/mL (≈ 3.67 µM)
solubility in aqueous media (pH 6.8): 1.2 µg/mL (≈ 3.15 µM)
solubility of free CXB (pH 6.8): ≈ 1.23 ± 0.05 μg/mL
SMILES: Cc1ccc(-c2cc(C(F)(F)F)nn2-c2ccc(S(N)(=O)=O)cc2)cc1 [CXB, Celecoxib]
